Values of other authors in patent US20260183298A1, “VIRAL PROPHYLAXIS TREATMENT METHODS AND PRE-EXPOSURE PROPHYLAXIS KITS” (priority 2022, published 2026).

Key:
[1] = in vivo
[2] = tested on: EHV; conditions: about 75% of the horses infected with EHV; all horses treated with valacyclovir
[3] = tested on: cytochrome p450
[4] = tested on: HSV-1, HSV-2, HSV-8 (Kaposi's Sarcoma Virus), Vaccinia and Cowpox viruses

Row | SMILES | time to clear through the kidneys [1] | Renal clearance (following a single 1 g dose) [mL/min] | Mean Cmax (in vivo) [ng/mL] | bioavailability (overall) [%] | progression to severe neurological disease [2] | metabolism by cytochrome p450 [3] | antiviral activity [4] | potency relative to reference antivirals ([4]; than the antiviral drugs acyclovir, ganciclovir and cidofovir)
1 | CC(=O)OCC(CCn1cnc2cnc(N)nc21)COC(C)=O [Famciclovir, famciclovir] | less than 24 hours | – | – | – | – | – | – | –
2 | CC(C)[C@H](N)C(=O)OCCOCn1cnc2c(=O)[nH]c(N)nc21 [Valacyclovir, valacyclovir] | less than 24 hours | 255 | 830 to 5650 | 54.5 | none progressed to severe neurological disease | not metabolized by cytochrome p450 | – | –
3 | Cc1cn([C@H]2C[C@H](O)[C@]3(CO)C[C@H]23)c(=O)[nH]c1=O [N-MCT, N-methanocarbathymidine] | – | – | – | – | – | – | inhibits | equally or more potent
